Each structure is given as a SMILES string. Where a name gives a salt, the structure may show the parent alone.

The nature of the data set: in vitro. As to conditions: human, hek293t cells.
In the case of `CC(NC(=O)CCl)c1nnc(-c2ccccc2F)s1` (centres unmarked) [7-L21, 2-chloro-N-{1-[5-(2-fluorophenyl)-1,3,4-thiadiazol-2-yl]ethyl}acetamide], the viability at 48 h, 25 µM was determined as 0.564%. As to `Cc1cc(CNC(=O)CCl)[nH]n1` [7-L22, 2-chloro-N-[(3-methyl-1H-pyrazol-5-yl)methyl]acetamide], the viability at 48 h, 25 µM is 90.6%.

`Cc1cnc(C(C)N2CCN(C(=O)C(C)Cl)CC2)s1` (centres unmarked) [7-M03, 2-chloro-1-{4-[1-(5-methyl-1,3-thiazol-2-yl)ethyl]piperazin-1-yl}propan-1-one]: the viability at 48 h, 25 µM is 97.5%. As for `CC(Cl)C(=O)N(C)Cc1cn(C)nc1C(F)(F)F` (centres unmarked) [7-M04, 2-chloro-N-methyl-N-{[1-methyl-3-(trifluoromethyl)-1H-pyrazol-4-yl]methyl}propanamide], the figure is 91.6%; as for `CC(Cl)C(=O)NCC1CCCN(c2nccn3cnnc23)C1` (centres unmarked) [7-M05, 2-chloro-N-[(1-{[1,2,4]triazolo[4,3-a]pyrazin-8-yl}piperidin-3-yl)methyl]propanamide], 102%; as for `CCc1nocc1CN(C)C(=O)C(C)Cl` (centres unmarked) [7-M06, 2-chloro-N-[(3-ethyl-1,2-oxazol-4-yl)methyl]-N-methylpropanamide], 95.1%. For `Cc1nnsc1CNC(=O)C(C)Cl` (centres unmarked) [7-M07, 2-chloro-N-[(4-methyl-1,2,3-thiadiazol-5-yl)methyl]propanamide], the viability at 48 h, 25 µM worked out at 89%. Turning to `CC(Cl)C(=O)NC(Cn1cncn1)c1ccccc1` (centres unmarked) [7-M09, 2-chloro-N-[1-phenyl-2-(1H-1,2,4-triazol-1-yl)ethyl]propanamide], the viability at 48 h, 25 µM was 90.3%. For the compound `CC(Cl)C(=O)N1CC(c2cc(CO)on2)C1` (centres unmarked) [7-M10, 2-chloro-1-{3-[5-(hydroxymethyl)-1,2-oxazol-3-yl]azetidin-1-yl}propan-1-one], the viability at 48 h, 25 µM is 84.9%.

`CC(Cl)C(=O)NCCCN1CCc2ccccc2C1` (centres unmarked) [7-M11, 2-chloro-N-[3-(1,2,3,4-tetrahydroisoquinolin-2-yl)propyl]propanamide]: the viability at 48 h, 25 µM stood at 88.4%. With `Cc1cccc2nc(C3CCN(C(=O)C(C)Cl)CC3)oc12` (centres unmarked) [7-M12, 2-chloro-1-[4-(7-methyl-1,3-benzoxazol-2-yl)piperidin-1-yl]propan-1-one], the viability at 48 h, 25 µM came out at 79.6%. On to `CC(Cl)C(=O)NCc1cnn2ccccc12` (centres unmarked) [7-M13, 2-chloro-N-({pyrazolo[1,5-a]pyridin-3-yl}methyl)propanamide], for which the viability at 48 h, 25 µM was found to be 104%. For the compound `CC(Cl)C(=O)N(C)C1CS(=O)(=O)c2ccc(Cl)cc21` (centres unmarked) [7-M14, 2-chloro-N-(5-chloro-1,1-dioxo-2,3-dihydro-1lambda6-benzothiophen-3-yl)-N-methylpropanamide], the viability at 48 h, 25 µM stood at 73%. Turning to `CC(Cl)C(=O)N1CC(S(=O)(=O)c2ccccc2F)C1` (centres unmarked) [7-M15, 2-chloro-1-[3-(2-fluorobenzenesulfonyl)azetidin-1-yl]propan-1-one], the viability at 48 h, 25 µM was 96.3%. In the case of `CC(Cl)C(=O)N1CCCC(c2cnn(C)c2)C1` (centres unmarked) [7-M16, 2-chloro-1-[3-(1-methyl-1H-pyrazol-4-yl)piperidin-1-yl]propan-1-one], the viability at 48 h, 25 µM was found to be 82%.

For `CC(Cl)C(=O)NC(c1cccc(C(F)(F)F)c1)c1nnc[nH]1` (centres unmarked) [7-M17, 2-chloro-N-[(4H-1,2,4-triazol-3-yl)[3-(trifluoromethyl)phenyl]methyl]propanamide], the viability at 48 h, 25 µM stood at 75.1%. As for `CC(Cl)C(=O)NCCc1cnc2c(Cl)cnn2c1` (centres unmarked) [7-M18, 2-chloro-N-(2-{3-chloropyrazolo[1,5-a]pyrimidin-6-yl}ethyl)propanamide], the figure is 90.6%; as for `Cc1cc(NC(=O)CN(C)C(=O)C(C)Cl)no1` (centres unmarked) [7-M19, 2-chloro-N-methyl-N-{[(5-methyl-1,2-oxazol-3-yl)carbamoyl]methyl}propanamide], 79.5%; as for `COCc1ncc2c(n1)CC1CCC2N1C(=O)C(C)Cl` (centres unmarked) [7-M20, 2-chloro-1-[5-(methoxymethyl)-4,6,12-triazatricyclo[7.2.1.0,2,7]dodeca-2,4,6-trien-12-yl]propan-1-one], 77%. Next, `CC(Cl)C(=O)NC(C)C(=O)N1CCc2ccccc21` (centres unmarked) [7-M21, 2-chloro-N-[1-(2,3-dihydro-1H-indol-1-yl)-1-oxopropan-2-yl]propanamide]: 84.1%; `CC(NC(=O)CCl)c1nc2c(s1)CCCCC2` (centres unmarked) [7-M22, 2-chloro-N-(1-{4H,5H,6H,7H,8H-cyclohepta[d][1,3]thiazol-2-yl}ethyl)acetamide]: 0.506%. As for `O=C(CCl)NC(Cn1cncn1)c1ccccc1` (centres unmarked) [7-N03, 2-chloro-N-[1-phenyl-2-(1H-1,2,4-triazol-1-yl)ethyl]acetamide], the viability at 48 h, 25 µM worked out at 0.644%. For `N#Cc1cccc(C(NC(=O)CCl)C(F)(F)F)c1` (centres unmarked) [7-N04, 2-chloro-N-[1-(3-cyanophenyl)-2,2,2-trifluoroethyl]acetamide], the viability at 48 h, 25 µM was determined as 0.24%.

With `CC(Cl)C(=O)N1CCN(Cc2nnnn2-c2ccccc2)CC1` (centres unmarked) [7-N05, 2-chloro-1-{4-[(1-phenyl-1H-1,2,3,4-tetrazol-5-yl)methyl]piperazin-1-yl}propan-1-one], the viability at 48 h, 25 µM came out at 97.8%. Regarding `COc1ccc(Cl)cc1C(O)CNC(=O)CCl` (centres unmarked) [7-N06, 2-chloro-N-[2-(5-chloro-2-methoxyphenyl)-2-hydroxyethyl]acetamide], the viability at 48 h, 25 µM is 0.942%.

As to `CC(Cl)C(=O)N1CCCN(C(=O)c2cc(Cl)cn2C)CC1` (centres unmarked) [7-N07, 2-chloro-1-[4-(4-chloro-1-methyl-1H-pyrrole-2-carbonyl)-1,4-diazepan-1-yl]propan-1-one], the viability at 48 h, 25 µM was 94.5%. Regarding `O=C(CCl)NCCCC(=O)N1CCCC1` [7-N08, 2-chloro-N-[4-oxo-4-(pyrrolidin-1-yl)butyl]acetamide], the viability at 48 h, 25 µM came to 93.6%.

For the compound `O=C(CCl)NC(Cc1ccccc1)c1ccccc1F` (centres unmarked) [7-N10, 2-chloro-N-[1-(2-fluorophenyl)-2-phenylethyl]acetamide], the viability at 48 h, 25 µM is 0.701%. In the case of `CC(Cl)C(=O)NCC(=O)Nc1ccc2c[nH]nc2c1` (centres unmarked) [7-N11, 2-chloro-N-{[(2H-indazol-6-yl)carbamoyl]methyl}propanamide], the viability at 48 h, 25 µM was determined as 97%. Regarding `O=C(CCl)NCc1ccccc1SC(F)(F)F` [7-N12, 2-chloro-N-({2-[(trifluoromethyl)sulfanyl]phenyl}methyl)acetamide], the viability at 48 h, 25 µM worked out at 0.794%.

As to `Cc1ccc(C(CNC(=O)C(C)Cl)N2CCOCC2)s1` (centres unmarked) [7-N13, 2-chloro-N-[2-(5-methylthiophen-2-yl)-2-(morpholin-4-yl)ethyl]propanamide], the viability at 48 h, 25 µM worked out at 108%. Take `O=C(CCl)NC1c2ccccc2CCC1n1ccnc1` (centres unmarked) [7-N14, 2-chloro-N-[2-(1H-imidazol-1-yl)-1,2,3,4-tetrahydronaphthalen-1-yl]acetamide hydrochloride]: the viability at 48 h, 25 µM is 95.8%.

With `CNC(=O)c1ccc(C2CCCCN2C(=O)C(C)Cl)n1C` (centres unmarked) [7-N15, 5-[1-(2-chloropropanoyl)piperidin-2-yl]-N,1-dimethyl-1H-pyrrole-2-carboxamide], the viability at 48 h, 25 µM amounted to 97.6%. In the case of `CC(NC(=O)CCl)C(=O)N1c2ccccc2CC1C` (centres unmarked) [7-N16, 2-chloro-N-[1-(2-methyl-2,3-dihydro-1H-indol-1-yl)-1-oxopropan-2-yl]acetamide], the viability at 48 h, 25 µM is 0.726%. With `CCc1nc2c(s1)C(N(C)C(=O)C(C)Cl)CCC2` (centres unmarked) [7-N17, 2-chloro-N-(2-ethyl-4,5,6,7-tetrahydro-1,3-benzothiazol-7-yl)-N-methylpropanamide], the viability at 48 h, 25 µM was found to be 84.1%. For the compound `O=C(CCl)NCC1CCCN(C(=O)C(F)(F)F)C1` (centres unmarked) [7-N18, 2-chloro-N-{[1-(2,2,2-trifluoroacetyl)piperidin-3-yl]methyl}acetamide], the viability at 48 h, 25 µM stood at 0.898%. For the compound `CC(Cl)C(=O)NC1Cc2ccccc2N(C(=O)C(F)(F)F)C1` (centres unmarked) [7-N19, 2-chloro-N-[1-(2,2,2-trifluoroacetyl)-1,2,3,4-tetrahydroquinolin-3-yl]propanamide], the viability at 48 h, 25 µM stood at 87.1%. For `O=C(CCl)NC(Cc1cccc(O)c1)c1ccccc1` (centres unmarked) [7-N20, 2-chloro-N-[2-(3-hydroxyphenyl)-1-phenylethyl]acetamide], the viability at 48 h, 25 µM came out at 0.777%.

Take `CC(Cl)C(=O)NC(C)c1nnnn1C1CC1` (centres unmarked) [7-N21, 2-chloro-N-[1-(1-cyclopropyl-1H-1,2,3,4-tetrazol-5-yl)ethyl]propanamide]: the viability at 48 h, 25 µM was 75.9%. `CC(Cl)C(=O)N1Cc2cccn2[C@@H](C)C1` (stereo partly drawn) [7-N22, 2-chloro-1-[(4S)-4-methyl-1H,2H,3H,4H-pyrrolo[1,2-a]pyrazin-2-yl]propan-1-one]: the viability at 48 h, 25 µM came out at 86.7%. As for `CC(Cl)C(=O)NCC1CN(c2nncs2)CCO1` (centres unmarked) [7-O03, 2-chloro-N-{[4-(1,3,4-thiadiazol-2-yl)morpholin-2-yl]methyl}propanamide], the viability at 48 h, 25 µM was 106%. Regarding `Cc1nc([C@H]2CCCN2C(=O)C(C)Cl)cs1` (stereo partly drawn) [7-O04, 2-chloro-1-[(2R)-2-(2-methyl-1,3-thiazol-4-yl)pyrrolidin-1-yl]propan-1-one], the viability at 48 h, 25 µM turned out to be 95.2%. Next, `CC(Cl)C(=O)NC1CCN(S(=O)(=O)c2cnn(C)c2)CC1` (centres unmarked) [7-O05, 2-chloro-N-{1-[(1-methyl-1H-pyrazol-4-yl)sulfonyl]piperidin-4-yl}propanamide]: 113%; `CC(=O)NC1(c2nc(C)cs2)CCN(C(=O)C(C)Cl)C1` (centres unmarked) [7-O06, N-[1-(2-chloropropanoyl)-3-(4-methyl-1,3-thiazol-2-yl)pyrrolidin-3-yl]acetamide]: 114%.

`CC(Cl)C(=O)N1CCN(C(C)C)c2ccccc2C1` (centres unmarked) [7-O07, 2-chloro-1-[1-(propan-2-yl)-2,3,4,5-tetrahydro-1H-1,4-benzodiazepin-4-yl]propan-1-one]: the viability at 48 h, 25 µM is 81.6%. Consider `CC(Cl)C(=O)NCCc1csc(N2CCCC2)n1` (centres unmarked) [7-O08, 2-chloro-N-{2-[2-(pyrrolidin-1-yl)-1,3-thiazol-4-yl]ethyl}propanamide], for which the viability at 48 h, 25 µM is 95.9%. As for `CC(Cl)C(=O)N[C@H](CC(N)=O)c1cccc(Cl)c1` (stereo partly drawn) [7-O09, (3R)-3-(3-chlorophenyl)-3-(2-chloropropanamido)propanamide], the viability at 48 h, 25 µM was found to be 102%.

For orientation: viability means a read-out of living cells in per cent, often relative to untreated cells.

The values are drawn from paper PMC11995724, “Antibiotic target discovery by integrated phenotypic and activity-based profiling of electrophilic fragments” (Cell chemical biology, 2025).
